Reference: patent US6642392B1 (priority 1997, dated 2003)
Read-outs that look alike come from different tables or passages of the source.

Columns and labels:
Assay type in all cases: in vivo
Botrytis cinerea = assay: Test E: gray mold, preventive spray on cucumber seedlings; conditions: for Test E disease control rating: gray mold on cucumber; for Test E disease control rating (100 = 100% disease control, 0 = no disease control): cucumber seedlings sprayed to run-off, inoculated the following day, rating relative to controls, unmarked compounds (standard test rate)
Summary of the method: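 Compounds in 3% acetone were suspended with 250 ppm Trem 014 surfactant and sprayed to run-off on cucumber seedlings. B. cinerea spores were inoculated next day, then 48 h saturated humidity at 20° C and 5 days at 20° C. Disease control rated 0–100% versus controls.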

Puccinia recondita = assay: Test B: wheat leaf rust, preventive spray on wheat seedlings; conditions: for Test B disease control rating: wheat leaf rust; for Test B disease control rating (100 = 100% disease control, 0 = no disease control): wheat seedlings sprayed to run-off, inoculated the following day, rating relative to controls, unmarked compounds (standard test rate)
Summary of the method: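 Wheat seedlings were sprayed to run-off with compound (3% acetone, 250 ppm Trem 014), then inoculated with P. recondita spores the next day. They were held 24 h saturated at 20 °C, then 6 days at 20 °C. Ratings are 0–100% disease control versus controls.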

Pyricularia oryzae = conditions: for Test C disease control rating: rice blast; for Test C disease control rating (100 = 100% disease control, 0 = no disease control): rice seedlings sprayed to run-off, inoculated the following day, rating relative to controls, unmarked compounds (standard test rate)
Phytophthora infestans = conditions: for Test D disease control rating: tomato late blight; for Test D disease control rating (100 = 100% disease control, 0 = no disease control): tomato seedlings sprayed to run-off, inoculated the following day, rating relative to controls, unmarked compounds (standard test rate)
[1] = tested on: Eiysiphe graminis f. sp. tritici; assay: Test A: wheat powdery mildew, preventive spray on wheat seedlings; conditions: for Test A disease control rating: wheat powdery mildew; for Test A disease control rating (100 = 100% disease control, 0 = no disease control): wheat seedlings sprayed to run-off, inoculated the following day, rating relative to controls, unmarked compounds (standard test rate)
Summary of the method: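 Compounds (3% acetone, 250 ppm Trem 014) sprayed to run-off on wheat seedlings, inoculated next day with spore dust. Incubated 7 days at 20° C before disease rating, 0–100% control relative to untreated controls.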

[2] = 100 = 100% disease control, 0 = no control, unmarked entries (standard test concentration)
[3] = 100 = 100% disease control, 0 = no control relative to controls, unmarked entries (standard test concentration)

Row | Structure (SMILES) | Test E disease control rating (Botrytis cinerea; [2]) | Test B disease control rating (Puccinia recondita; [2]) | Test C disease control rating (Pyricularia oryzae; [2]) | Test D disease control rating (Phytophthora infestans; [2]) | Test A disease control rating [1, 3] | Test E disease control rating (100 = 100% disease control, 0 = no disease control) (Botrytis cinerea) | Test B disease control rating (100 = 100% disease control, 0 = no disease control) (Puccinia recondita) | Test C disease control rating (100 = 100% disease control, 0 = no disease control) (Pyricularia oryzae) | Test D disease control rating (100 = 100% disease control, 0 = no disease control) (Phytophthora infestans) | Test A disease control rating (100 = 100% disease control, 0 = no disease control) [1] | further results
1 | C[C@H](COc1cc(Cl)cc(Cl)c1)NC(=O)C(C#N)C(C)(C)C (single isomer, unassigned) [35a] | 0% | 0% | 74% | 80% | 0% | – | – | – | – | – | –
2 | CCC1(C(=O)NC(C)COc2ccc(F)cc2)C(C)C1(Cl)Cl (mixture of isomers) [80a] | – | – | – | – | – | – | – | – | – | – | Test E disease control rating (Botrytis cinerea; tested at 40 ppm): 0%; Test B disease control rating (Puccinia recondita; tested at 40 ppm): 0%; Test C disease control rating (Pyricularia oryzae; tested at 40 ppm): 86%; Test D disease control rating (Phytophthora infestans; tested at 40 ppm): 20%; Test A disease control rating ([1]; tested at 40 ppm): 0%
3 | CCC1(C(=O)NC(C)COc2cccc(CF)c2)C(C)C1(Cl)Cl (mixture of isomers) [compound 93] | – | – | – | – | – | – | – | – | – | – | Test E disease control rating (Botrytis cinerea; tested at 40 ppm): 0%; Test B disease control rating (Puccinia recondita; tested at 40 ppm): 0%; Test C disease control rating (Pyricularia oryzae; tested at 40 ppm): 85%; Test D disease control rating (Phytophthora infestans; tested at 40 ppm): 19%; Test A disease control rating ([1]; tested at 40 ppm): 57%
4 | C[C@H](COc1cc(F)ccc1F)NC(=O)C(C#N)C(C)(C)C=CF (single isomer, unassigned) [221a] | – | – | – | – | – | 0% | 0% | 100% | 41% | 0% | –
5 | CCc1cccc(OCC(C)NC(=O)C(C#N)C(C)(C)C)c1 (mixture of isomers) [compound 177] | 6% | 0% | 94% | 35% | 62% | – | – | – | – | – | –
6 | C#CC(C)(C=C)C(C#N)C(=O)NC(C)COc1cc(F)ccc1Cl (mixture of isomers) [compound 303] | – | – | – | – | – | 0% | 0% | 99% | 100% | 0% | –
7 | CCC1(C(=O)NCCCn2cccc2Cl)C(C)C1(Cl)Cl (stereo not shown) [compound 146] | 0% | 22% | 0% | 0% | 0% | – | – | – | – | – | –
8 | CCC1(C(=O)NC(C)COc2cccc(Cl)c2C#N)C(C)C1(Cl)Cl (mixture of isomers) [compound 131] | 0% | 0% | 53% | 52% | 0% | – | – | – | – | – | –
9 | C[C@H](COc1ccc(Cl)c(Cl)c1)NC(=O)C(C#N)C(C)(C)C (single isomer, unassigned) [181a] | 69% | 0% | 86% | 56% | 0% | – | – | – | – | – | –
10 | C#Cc1ccccc1OCC(C)NC(=O)C(C#N)C(C)(C)C (mixture of isomers) [compound 216] | – | – | – | – | – | 45% | 0% | 99% | 9% | 0% | –
11 | C[C@H](COc1cc(Cl)c(Cl)cc1Cl)NC(=O)C(C#N)C(C)(C)C (single isomer, unassigned) [174b] | 0% | 28% | 52% | 91% | 0% | – | – | – | – | – | –
12 | CCC1(C(=O)NC(C)COc2ccccc2Br)C(C)C1(Cl)Cl (mixture of isomers) [84b] | – | – | – | – | – | – | – | – | – | – | Test E disease control rating (Botrytis cinerea; tested at 40 ppm): 0%; Test B disease control rating (Puccinia recondita; tested at 40 ppm): 28%; Test C disease control rating (Pyricularia oryzae; tested at 40 ppm): 73%; Test D disease control rating (Phytophthora infestans; tested at 40 ppm): 75%; Test A disease control rating ([1]; tested at 40 ppm): 57%
13 | CC(COc1c(C#N)cccc1C(F)(F)F)NC(=O)C(C#N)C(C)(C)C (mixture of isomers) [compound 48] | 0% | 0% | 91% | 0% | 0% | – | – | – | – | – | –
14 | CCC1(C(=O)NC(C)COc2c(C)cccc2C#N)C(C)C1(Cl)Cl (mixture of isomers) [compound 259] | – | – | – | – | – | 48% | 0% | 91% | 0% | 84% | –
15 | CC(COc1ccccc1C(F)(F)F)NC(=O)C(C#N)C(C)(C)C (mixture of isomers) [17a] | 0% | 67% | 30% | 16% | 85% | – | – | – | – | – | –
16 | CC(COn1c(C#N)cc(Cl)c1Cl)NC(=O)C(C#N)C(C)(C)C (mixture of isomers) [compound 51] | 0% | 0% | 53% | 68% | 71% | – | – | – | – | – | –
17 | C[C@H](COc1ccc(Cl)c(F)c1)NC(=O)C(C#N)C(C)(C)C (single isomer, unassigned) [182b] | 0% | 68% | 94% | 0% | 0% | – | – | – | – | – | –
18 | CCC1(C(=O)NC(C)COc2cccc(I)c2)C(C)C1(Cl)Cl (mixture of isomers) [compound 88] | – | – | – | – | – | – | – | – | – | – | Test E disease control rating (Botrytis cinerea; tested at 40 ppm): 0%; Test B disease control rating (Puccinia recondita; tested at 40 ppm): 0%; Test C disease control rating (Pyricularia oryzae; tested at 40 ppm): 0%; Test D disease control rating (Phytophthora infestans; tested at 40 ppm): 0%; Test A disease control rating ([1]; tested at 40 ppm): 52%
19 | CCC1(C(=O)NC(C)COc2cc(I)ccc2C#N)C(C)C1(Cl)Cl (stereo not shown) [compound 247] | – | – | – | – | – | 0% | 0% | 85% | 0% | 53% | –
20 | CC(C=Cc1ccccc1F)NC(=O)C(C#N)C(C)(C)C (mixture of isomers) [compound 308] | – | – | – | – | – | 0% | 28% | 100% | 45% | 86% | –
21 | CC(COc1c(F)cccc1C#N)NC(=O)C(C#N)C(C)C(C)(C)C (mixture of isomers) [compound 67] | 0% | 0% | 0% | 92% | 0% | – | – | – | – | – | –
22 | C[C@H](COc1cc(Cl)cc(Cl)c1Cl)NC(=O)C(C#N)C(C)(C)C (single isomer, unassigned) [170a] | 58% | 0% | 53% | 0% | 35% | – | – | – | – | – | –
23 | CCC1(C(=O)NC(C)CCn2cc(Cl)cc2C#N)C(C)C1(Cl)Cl (mixture of isomers) [compound 144] | 0% | 28% | 53% | 0% | 0% | – | – | – | – | – | –
24 | CC(COc1cc(F)ccc1Cl)NC(=O)C(C#N)C(C)(C)C=CF (mixture of isomers) [compound 222] | – | – | – | – | – | 0% | 28% | 100% | 41% | 62% | –
25 | CC(C)C(C#N)C(=O)NC(C)C(Oc1cc(F)ccc1C#N)c1ccccc1 (mixture of isomers) [compound 289] | – | – | – | – | – | 0% | 0% | 90% | 45% | 0% | –
26 | CCC1(C(=O)NCC=Cc2ccccc2CC#N)C(C)C1(Cl)Cl (stereo not shown) [compound 161] | – | – | – | – | – | – | – | – | – | – | Test E disease control rating (Botrytis cinerea; tested at 40 ppm): 0%; Test B disease control rating (Puccinia recondita; tested at 40 ppm): 0%; Test C disease control rating (Pyricularia oryzae; tested at 40 ppm): 0%; Test D disease control rating (Phytophthora infestans; tested at 40 ppm): 0%; Test A disease control rating ([1]; tested at 40 ppm): 0%
